Test results as given in patent US8753841B2, “Enzyme that catalyzes a peptide-forming reaction from a carboxy component and an amine component, microbe producing the same, and a method of producing a dipeptide using the enzyme or microbe” (Ajinomoto Co., Inc., priority 2002, dated 2014).
Non-standard residues stand in square brackets, D forms with d. No end group written: not given here.

Assays:
Type in all cases: biochemical
[1] = tested on: enzyme derived from Sphingobacterium sp. strain FERM BP-8124; experiment: Substrate specificity of enzyme derived from Sphingobacterium sp.; parameters: key to Produced peptide (mM): +: those peptides for which production was confirmed but which were unable to be quantified due to the absence of a standard; a trace amount; conditions: carboxy component 100 mM, 0.33 units enzyme, pH 9.0, 25° C., 1.5 hours
[2] = tested on: peptide-forming enzyme from Empedobacter brevis strain FERM BP-8113; experiment: Substrate specificity of enzyme (peptide production from carboxy and amine components); parameters: key to Formed peptide (mM): +: those peptides for which production was confirmed but which were unable to be quantified due to the absence of a standard; a trace amount; conditions: pH 9.0, 25° C., 3 hours
[3] = tested on: peptide-forming enzyme from Empedobacter brevis strain FERM BP-8113; experiment: as above; parameters: key to Formed peptide (mM): +: those peptides for which production was confirmed but which were unable to be quantified due to the absence of a standard; a trace amount; conditions: L-amino acid methyl ester hydrochloride 100 mM, pH 9.0, 25° C., 3 hours
Source text: Ester specificity was examined in the case of using L-amino acid ester for the carboxy component. […] HCl represents hydrochloride in Table 4.
Peptide production was examined in the case of using L-alanine methyl ester for the carboxy component and using various L-amino acids for the amine component.
Peptide production was examined in the case of using various types of L-amino acid methyl esters for the carboxy component and using L-glutamine for the amine component. […] Furthermore, Tween-80 was added to the reaction system to a final concentration of 0.1% in the case of using L-Trp-OMe and L-Tyr-OMe.

[4] = Table 15-1, amine component 150 mM
[5] = carboxy component 100 mM, peptide amine component 150 mM
[6] = oligopeptide production, amine component 150 mM
[7] = Table 15-3, amine component 150 mM
[8] = L or D amino acid methyl ester hydrochloride 100 mM, L or D amino acid 150 mM
[9] = β-amino acid ester or β-amino acid, carboxy component 100 mM, amine component 150 mM

Sequence of enzyme derived from Sphingobacterium sp. strain FERM BP-8124 (as listed by the source): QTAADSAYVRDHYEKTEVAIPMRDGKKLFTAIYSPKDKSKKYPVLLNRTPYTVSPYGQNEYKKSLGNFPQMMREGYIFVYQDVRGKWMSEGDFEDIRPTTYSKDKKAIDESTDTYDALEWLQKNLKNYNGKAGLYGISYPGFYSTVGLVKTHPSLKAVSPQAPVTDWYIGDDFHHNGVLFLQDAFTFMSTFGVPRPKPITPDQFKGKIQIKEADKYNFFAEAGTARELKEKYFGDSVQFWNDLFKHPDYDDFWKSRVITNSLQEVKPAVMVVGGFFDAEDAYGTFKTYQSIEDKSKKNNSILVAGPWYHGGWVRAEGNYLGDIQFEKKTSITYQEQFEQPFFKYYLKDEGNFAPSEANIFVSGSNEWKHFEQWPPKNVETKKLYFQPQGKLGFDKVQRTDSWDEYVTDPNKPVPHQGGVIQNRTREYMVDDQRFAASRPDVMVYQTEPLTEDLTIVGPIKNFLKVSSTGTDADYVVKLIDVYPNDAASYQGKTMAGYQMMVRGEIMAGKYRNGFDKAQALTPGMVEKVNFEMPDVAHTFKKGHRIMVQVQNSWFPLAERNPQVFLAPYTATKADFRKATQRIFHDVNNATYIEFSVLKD

Q: With L-Ala-L-Asn as the substance, how does the “Produced peptide” value [1, 4] read?
A: 52.3 mM

Q: L-Ala-L-Asp was tested. Which “Produced peptide” value [1, 4] did it give?
A: 2.3 mM

Q: For L-Ala-L-CySH, which “Produced peptide (mM)” value [1, 4] is on record?
A: +

Q: With L-Ala-L-Glu as the substance, how does the “Produced peptide” value [1, 4] read?
A: 39.1 mM

Q: Which results are given for L-Ala-L-His-L-Ala?
A: Produced peptide [2, 5]: 55.9 mM; Produced peptide [1, 6]: 58.0 mM

Q: L-Ala-L-Ile was tested. Which “Produced peptide” value [1, 4] did it give?
A: 24.7 mM

Q: For L-Ala-L-Leu-L-Ala, which “Produced peptide” value [2, 5] is on record?
A: 48.3 mM

Q: And the “Produced peptide” value [1, 6]?
A: 40.7 mM

Q: Which “Produced peptide” value [1, 4] does the source give for L-Ala-L-Lys here?
A: 71.2 mM

Q: With L-Ala-L-Phe-Gly as the substance, how does the “Produced peptide” value [2, 5] read?
A: 43.7 mM

Q: What about the “Produced peptide” value [1, 6] of the same substance?
A: 34.0 mM

Q: For L-Ala-L-Phe-L-Ala, which “Produced peptide” value [2, 5] is on record?
A: 49.7 mM

Q: What about the “Produced peptide” value [1, 6] of the same substance?
A: 24.8 mM

Q: For L-Ala-L-Phe-NH2, which “Formed peptide” value ([2]; L-alanine methyl ester hydrochloride 100 mM, L-amino acid amide hydrochloride 150 mM) is on record?
A: 12.2 mM

Q: What about the “Produced peptide” value ([1]; Table 15-4, amine component 150 mM) of the same substance?
A: 27.1 mM

Q: Which “Produced peptide” value [1, 4] does the source give for L-Ala-L-Pro here?
A: 1.5 mM

Q: With L-Ala-L-Thr as the substance, how does the “Produced peptide” value [1, 4] read?
A: 47.3 mM

Q: For L-Ala-L-Trp, which “Produced peptide” value [1, 4] is on record?
A: 46.0 mM

Q: Which “Produced peptide” value [1, 4] does the source give for L-Ala-L-Tyr here?
A: 11.1 mM

Q: For L-Ala-L-Val, which “Produced peptide” value [1, 4] is on record?
A: 10.9 mM

Q: L-Arg-L-Gln was tested. Which “Formed peptide” value ([3]; 150 mM L-glutamine) did it give?
A: 7.1 mM

Q: And the “Produced peptide” value ([1]; Table 15-2, L-Gln 150 mM)?
A: 17.2 mM

Q: Which “Formed peptide” value ([3]; L-amino acid 150 mM) does the source give for L-Arg-L-Met here?
A: 0.7 mM

Q: What about the “Produced peptide (mM)” value [1, 7] of the same substance?
A: tr

Q: What does the source list for L-Arg-L-Phe?
A: Formed peptide ([3]; L-amino acid 150 mM): 1.9 mM; Produced peptide (mM) [1, 7]: tr

Q: How did the “Formed peptide” value ([3]; L-amino acid 150 mM) turn out when L-Arg-L-Ser was run?
A: 3.6 mM

Q: And the “Produced peptide” value [1, 7]?
A: 2.2 mM

Q: For L-Asn-L-Gln, which “Formed peptide (mM)” value ([3]; 150 mM L-glutamine) is on record?
A: +

Q: L-Asn-L-Glu was tested. Which “Formed peptide” value ([3]; L-amino acid 150 mM) did it give?
A: 10.2 mM

Q: For L-CySH-L-Gln, which “Formed peptide (mM)” value ([3]; 150 mM L-glutamine) is on record?
A: +

Q: How did the “Formed peptide” value ([3]; 150 mM L-glutamine) turn out when L-Gln-L-Gln was run?
A: 0.3 mM

Q: What about the “Produced peptide” value ([1]; Table 15-2, L-Gln 150 mM) of the same substance?
A: 0.1 mM

Q: With L-His-L-Gln as the substance, how does the “Formed peptide (mM)” value ([3]; 150 mM L-glutamine) read?
A: +

Q: L-His-L-Met was tested. Which “Formed peptide” value ([3]; L-amino acid 150 mM) did it give?
A: 6.5 mM

Q: Which results are given for L-Ile-L-Gln?
A: Formed peptide ([3]; 150 mM L-glutamine): 8.4 mM; Produced peptide ([1]; Table 15-2, L-Gln 150 mM): 6.4 mM

Q: Which results are given for L-Ile-L-Phe?
A: Formed peptide ([3]; L-amino acid 150 mM): 5.2 mM; Produced peptide [1, 7]: 1.5 mM

Q: With L-Ile-L-Ser as the substance, how does the “Formed peptide” value ([3]; L-amino acid 150 mM) read?
A: 17.2 mM

Q: And the “Produced peptide” value [1, 7]?
A: 17.3 mM

Q: L-Leu-L-Gln was tested. Which “Formed peptide (mM)” value ([3]; 150 mM L-glutamine) did it give?
A: +

Q: With L-Leu-L-Met as the substance, how does the “Formed peptide” value ([3]; L-amino acid 150 mM) read?
A: 12.2 mM

Q: For L-Lys-L-Gln, which “Formed peptide (mM)” value ([3]; 150 mM L-glutamine) is on record?
A: +

Q: With L-Lys-L-Met as the substance, how does the “Formed peptide” value ([3]; L-amino acid 150 mM) read?
A: 6.8 mM

Q: How did the “Formed peptide” value [2, 8] turn out when L-Met-D-Ser was run?
A: 1.9 mM

Q: How did the “Formed peptide” value ([3]; 150 mM L-glutamine) turn out when L-Met-L-Gln was run?
A: 12.0 mM

Q: And the “Produced peptide” value ([1]; Table 15-2, L-Gln 150 mM)?
A: 32.6 mM

Q: For L-Met-L-Met, which “Formed peptide” value ([3]; L-amino acid 150 mM) is on record?
A: 25.0 mM

Q: What about the “Produced peptide” value [1, 7] of the same substance?
A: 28.4 mM

Q: With L-Met-L-Ser as the substance, how does the “Formed peptide” value ([3]; L-amino acid 150 mM) read?
A: 12.8 mM

Q: And the “Produced peptide” value [1, 7]?
A: 25.3 mM

Q: L-Phe-L-Ser was tested. Which “Formed peptide” value ([2]; L-amino acid amide hydrochloride 100 mM as carboxy component, L-amino acid 150 mM) did it give?
A: 0.6 mM

Q: What does the source list for L-Pro-L-Gln?
A: Formed peptide ([3]; 150 mM L-glutamine): 2.2 mM; Produced peptide ([1]; Table 15-2, L-Gln 150 mM): 1.8 mM

Q: With L-Ser-D-Ser as the substance, how does the “Formed peptide” value [2, 8] read?
A: 16.2 mM

Q: L-Thr-D-Ser was tested. Which “Formed peptide” value [2, 8] did it give?
A: 6.9 mM

Q: For L-Thr-Gly-Gly, which “Produced peptide” value [2, 5] is on record?
A: 83.0 mM

Q: And the “Produced peptide” value [1, 6]?
A: 8.4 mM

Q: How did the “Formed peptide” value ([3]; L-amino acid 150 mM) turn out when L-Thr-L-Ser was run?
A: 58.2 mM

Q: With L-Trp-L-Gln as the substance, how does the “Formed peptide (mM)” value ([3]; 150 mM L-glutamine) read?
A: +

Q: With L-Trp-L-Met as the substance, how does the “Formed peptide” value ([3]; L-amino acid 150 mM) read?
A: 4.1 mM

Q: Which “Produced peptide” value ([2]; oligopeptide production, amount of enzyme 1.0 unit) does the source give for L-Tyr-Gly-Gly-L-Phe-L-Met here?
A: 2.7 mM

Q: Which “Formed peptide” value [2, 8] does the source give for L-Val-D-Ser here?
A: 1.4 mM

Q: With Thr-β-Ala as the substance, how does the “Formed peptide” value [2, 9] read?
A: 3.2 mM

Q: Thr-β-Phe was tested. Which “Formed peptide” value [2, 9] did it give?
A: 1.4 mM

Q: Which “Produced peptide (mM)” value ([2]; oligopeptide production, amount of enzyme 0.1 unit) does the source give for [dA]-Gly-Phe here?
A: Tr

Q: For α-L-Glu-L-Gln, which “Formed peptide (mM)” value ([3]; 150 mM L-glutamine) is on record?
A: +

Q: For β-Ala-L-Gln, which “Formed peptide” value [2, 9] is on record?
A: 0.6 mM

Q: With β-Ala-L-Ser as the substance, how does the “Formed peptide” value [2, 9] read?
A: 3.2 mM

Q: How did the “Formed peptide (mM)” value [2, 9] turn out when β-Ala-L-α-Ala was run?
A: tr

Q: How did the “Formed peptide” value [2, 9] turn out when β-Ala-β-Ala was run?
A: 0.2 mM

Q: Which “Formed peptide (mM)” value ([3]; 150 mM L-glutamine) does the source give for β-L-Asp-L-Gln here?
A: tr

Q: With γ-L-Glu-L-Gln as the substance, how does the “Formed peptide (mM)” value ([3]; 150 mM L-glutamine) read?
A: +
